Laboratory results reported in patent US7550458B2, “Tricycloundecane compounds useful as modulators of nuclear hormone receptor function” (Bristol-Myers Squibb Company, priority 2005, dated 2009).
Read-outs that look alike come from different tables or passages of the source.

How the values were obtained:
AR [1] = biological target: T1, AR (Rattus norvegicus, UniProt P15207)
T1 sequence (P15207 1-902): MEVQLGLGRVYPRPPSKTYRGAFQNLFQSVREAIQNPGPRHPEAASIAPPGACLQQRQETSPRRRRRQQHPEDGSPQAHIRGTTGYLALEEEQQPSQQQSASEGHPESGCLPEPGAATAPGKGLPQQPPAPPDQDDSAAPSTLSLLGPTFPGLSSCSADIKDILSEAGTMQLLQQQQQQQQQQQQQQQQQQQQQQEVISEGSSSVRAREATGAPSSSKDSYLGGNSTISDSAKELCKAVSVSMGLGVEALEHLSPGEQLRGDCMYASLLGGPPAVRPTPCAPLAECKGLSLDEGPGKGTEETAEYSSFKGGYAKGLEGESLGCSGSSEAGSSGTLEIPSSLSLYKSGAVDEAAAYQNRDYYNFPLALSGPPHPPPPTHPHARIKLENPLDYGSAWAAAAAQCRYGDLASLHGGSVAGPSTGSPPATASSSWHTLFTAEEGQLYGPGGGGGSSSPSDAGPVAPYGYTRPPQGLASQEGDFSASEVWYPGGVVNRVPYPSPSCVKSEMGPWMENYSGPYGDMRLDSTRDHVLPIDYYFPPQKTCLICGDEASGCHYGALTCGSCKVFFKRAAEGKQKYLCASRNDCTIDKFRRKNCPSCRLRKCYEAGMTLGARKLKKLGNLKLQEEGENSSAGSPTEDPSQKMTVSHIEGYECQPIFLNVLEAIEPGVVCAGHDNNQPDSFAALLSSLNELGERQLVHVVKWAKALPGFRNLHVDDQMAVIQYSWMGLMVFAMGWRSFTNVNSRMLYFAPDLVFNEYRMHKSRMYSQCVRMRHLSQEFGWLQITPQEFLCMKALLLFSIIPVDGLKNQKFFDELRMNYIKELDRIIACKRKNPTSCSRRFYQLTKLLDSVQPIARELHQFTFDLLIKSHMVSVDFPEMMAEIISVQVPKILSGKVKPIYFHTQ

AR [2] = biological target: T1, AR; conditions: castrated rats, dosing for 3 days
wild type AR = experiment: AR whole cell binding assay, saturation analysis, MDA 453 cells; set-up: species or system human; conditions: read-out: Kd for [^3H]-DHT, Scatchard analysis
glucocorticoid receptor = glucocorticoid receptor (Homo sapiens, UniProt P04150); conditions: at a concentration of ≦10 μM, A549 cells
Chain of glucocorticoid receptor (P04150 whole entry): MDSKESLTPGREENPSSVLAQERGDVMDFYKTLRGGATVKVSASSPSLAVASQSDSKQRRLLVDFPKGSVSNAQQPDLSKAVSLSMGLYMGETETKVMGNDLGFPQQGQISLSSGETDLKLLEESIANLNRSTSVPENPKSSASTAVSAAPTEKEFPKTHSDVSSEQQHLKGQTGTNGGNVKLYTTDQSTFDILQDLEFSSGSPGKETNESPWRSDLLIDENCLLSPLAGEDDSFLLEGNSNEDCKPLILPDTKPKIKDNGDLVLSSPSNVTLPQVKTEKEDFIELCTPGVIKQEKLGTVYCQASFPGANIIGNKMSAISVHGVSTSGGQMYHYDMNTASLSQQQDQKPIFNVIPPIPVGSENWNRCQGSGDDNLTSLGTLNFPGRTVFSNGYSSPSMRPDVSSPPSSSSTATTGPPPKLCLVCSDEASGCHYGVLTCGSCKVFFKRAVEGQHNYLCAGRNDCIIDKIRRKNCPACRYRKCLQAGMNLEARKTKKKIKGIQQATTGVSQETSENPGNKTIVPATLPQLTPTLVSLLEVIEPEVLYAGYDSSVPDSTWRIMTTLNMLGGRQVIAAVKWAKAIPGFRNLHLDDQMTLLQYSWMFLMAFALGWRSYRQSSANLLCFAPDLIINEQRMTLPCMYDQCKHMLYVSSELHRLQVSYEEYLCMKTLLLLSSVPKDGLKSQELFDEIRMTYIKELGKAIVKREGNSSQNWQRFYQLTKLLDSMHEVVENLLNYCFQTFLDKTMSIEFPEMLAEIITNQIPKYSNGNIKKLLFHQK
Description: Cells are plated the day before the assay at approximately 40000 cells/well. […] Activity is measured by analysis in a luminometer as compared to control experiments treated with buffer or dexamethasome.

Compound: CCC(=O)O[C@H]1CC[C@H]2[C@@H]3CCC4=CC(=O)CC[C@]4(C)[C@H]3CC[C@]12C [TP, testosterone propionate]
- ED80 of TP (AR [1]; immature castrated rat model): 0.1 mg
- EC50 (increase in organ weight) (AR [1]; immature castrated rats, dosing for 3 days): ~0.03 mg
- EC50 (increase in organ weight) (AR [2]): ~0.03 mg

Compound: C[C@@H]1C[C@H]2[C@@H]3CCC4=CC(=O)C=C[C@]4(C)[C@@]3(F)[C@@H](O)C[C@]2(C)[C@@]1(O)C(=O)CO [dexamethasone]
- suppression of activity (% inhibition of the reporter system vs buffer control with 10 ng/ml PMA) (glucocorticoid receptor): ~65%
